Data: US12325710B2, “Substituted 1,2,3,4,5,6-hexahydroazepino[4,5-b]indoles for treating brain disorders” (priority 2019, dated 2025)
“Also recorded” adds a separate entry of the source.

Assays:
[1] = tested on: C57/BL6J mice; assay: Forced swim test (FST); type: in vivo, mouse; settings: 24 h after drug administration; TBG 50 mg/kg, ketamine 3 mg/kg i.p.
Description: Forced Swim Test (FST). Male C57/BL6J mice (9-10 weeks old at time of experiment, n=10 per condition) were obtained from the Jackson Lab and housed 4-5 mice/cage in a UCD vivarium following an IACUC approved protocol. After 1 week in the vivarium each mouse was handled for approximately 1 minute by a experimenter for 3 consecutive days leading up to the first FST. All experiments were carried out by the same experimenter who performed handling. During the FST, mice underwent a 6 min swim session in a clear Plexiglas cylinder 40 cm tall, 20 cm in diameter, and filled with 30 cm of 24±1° C. water. Fresh water was used for every mouse. After handling and habituation to the experimenter, drug-naïve mice first underwent a pretest swim to more reliably induce a depressive phenotype in the subsequent FST sessions. Immobility scores for all mice were determined after the pre-test and mice were randomly assigned to treatment groups to generate groups with similar average immobility scores to be used for the following two FST sessions. […] Experiments were video-recorded and manually scored offline. Immobility time—defined as passive floating or remaining motionless with no activity other than that needed to keep the mouse's head above water—was scored for the last 4 min of the 6 min trial.

[2] = tested on: rat embryonic cortical neurons; assay: Dendritogenesis (Sholl analysis) in cultured cortical neurons; type: cell-based; settings: 1 h treatment followed by 71 h growth; compared to vehicle (VEH)
Description: Embryonic rat cortical neurons were treated for a short period of time (1 h) followed by a suitable growth period (71 h) to measure the psychoplastogenic effects of the compounds described herein. […] Therefore, the effects of ibogalogs 8-17 on dendritic growth was assessed.
Dendritogenesis Experiments. For the dendritogenesis experiments conducted using cultured cortical neurons, timed pregnant Sprague Dawley rats were obtained from Charles River Laboratories (Wilmington, MA). Full culturing, staining, and analysis details were performed as previously described. (Dunlap, L. et al., 2019)

[3] = target: T1, hERG channels expressed in HEK293 cells (Homo sapiens, UniProt Q12809); type: cell-based; settings: relative to ibogaine
T1 construct: expressed in transfected cells
T1 sequence (Q12809 whole entry): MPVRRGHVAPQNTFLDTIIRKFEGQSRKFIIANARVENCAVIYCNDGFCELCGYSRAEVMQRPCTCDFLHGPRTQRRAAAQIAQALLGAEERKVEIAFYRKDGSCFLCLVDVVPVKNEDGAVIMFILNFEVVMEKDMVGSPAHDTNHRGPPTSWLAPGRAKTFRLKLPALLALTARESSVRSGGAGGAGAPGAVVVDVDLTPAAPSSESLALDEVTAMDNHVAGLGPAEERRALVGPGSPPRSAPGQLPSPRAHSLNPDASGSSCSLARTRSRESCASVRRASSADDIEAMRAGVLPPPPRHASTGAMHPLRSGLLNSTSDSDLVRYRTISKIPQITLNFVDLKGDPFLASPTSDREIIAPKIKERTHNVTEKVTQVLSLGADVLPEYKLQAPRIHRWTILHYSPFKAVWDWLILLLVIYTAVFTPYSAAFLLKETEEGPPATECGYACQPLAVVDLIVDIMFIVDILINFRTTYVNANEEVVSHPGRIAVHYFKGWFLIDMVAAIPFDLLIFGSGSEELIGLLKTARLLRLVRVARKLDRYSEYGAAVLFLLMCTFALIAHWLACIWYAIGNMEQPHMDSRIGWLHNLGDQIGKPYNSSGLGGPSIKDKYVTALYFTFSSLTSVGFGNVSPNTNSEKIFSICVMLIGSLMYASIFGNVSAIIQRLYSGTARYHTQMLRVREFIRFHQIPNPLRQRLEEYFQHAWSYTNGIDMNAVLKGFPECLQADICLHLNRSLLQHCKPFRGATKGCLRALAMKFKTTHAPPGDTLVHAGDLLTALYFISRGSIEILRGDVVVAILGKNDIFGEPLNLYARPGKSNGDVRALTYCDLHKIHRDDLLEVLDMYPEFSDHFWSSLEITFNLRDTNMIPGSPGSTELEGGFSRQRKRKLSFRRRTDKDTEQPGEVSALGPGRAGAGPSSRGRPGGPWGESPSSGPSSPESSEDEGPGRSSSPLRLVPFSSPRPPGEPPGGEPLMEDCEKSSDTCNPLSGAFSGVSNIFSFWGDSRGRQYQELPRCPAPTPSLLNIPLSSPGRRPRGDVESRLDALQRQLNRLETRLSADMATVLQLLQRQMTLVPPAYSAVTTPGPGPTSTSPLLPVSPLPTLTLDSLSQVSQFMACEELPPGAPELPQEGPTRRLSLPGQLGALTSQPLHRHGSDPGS
Description: hERG Inhibition Studies. All experiments were conducted manually using an EPC-10 amplifier (HEKA, Lambrecht/Pfalz, Germany) at room temperature in the whole-cell mode of the patch-clamp technique. HEK-293 cells stably expressing hKv11.1 (hERG) under G418 selection were a generous gift from Craig January (University of Wisconsin, Madison). Cells were cultured in DMEM containing 10% fetal bovine serum, 2 mM glutamine, 1 mM sodium pyruvate, 100 U/mL penicillin, 100 μg/mL streptomycin, and […]. Before experiments, cells were cultured to 60-80% confluency and lifted using TrypLE and plated onto poly-L-lysine-coated coverslips. Patch pipettes were pulled from soda lime glass (micro-hematocrit tubes) and had resistances of 2-4 MO. For the external solution, normal sodium Ringer was used (160 mM NaCl, 4.5 mM KCl, 2 mM CaCl2, 1 mM MgCl2, 10 mM HEPES, pH 7.4 and 290-310 mOsm). The internal solution used was potassium fluoride with ATP (160 mM KF, 2 mM MgCl2, 10 mM EGTA, 10 mM HEPES, 4 mM NaATP, pH=7.2 and 300-320 mOsm). A 2-step pulse (applied every 10 sec) from −80 mV first to 40 mV for 2 sec and then to −60 mV for 4 sec, was used to elicit hERG currents. The percent reduction of tail current amplitude by the drugs was determined and data are shown as mean+/−SD. For all experiments, solutions of the drugs were prepared fresh from 10 mM stock solutions in DMSO. […]

[4] = tested on: larval zebrafish; assay: Larval zebrafish movement activity during a battery of light and acoustic stimuli
Source text: Stimuli applied over time are indicated under the heatmaps. Colors indicate bright LED light of respective colors, black traces represent the waveforms of acoustic stimuli, and gray vertical lines indicate physical tapping as secondary acoustic stimuli.
Response is […] proportional to classification accuracy; 0-20% indicates no ability and 100% indicates perfect classification. […] The solid line denotes the median and the shading denotes a 95th percentile confidence interval calculated by bootstrap. N=8 wells/condition (64 animals/condition).

[5] = tested on: zebrafish; assay: Zebrafish developmental toxicity assay; type: in vivo; settings: 100 μM; 2 and 5 dpf
[6] = target: human 5-HT2A receptors (Homo sapiens, UniProt P28223); assay: 5-HT2A Gq-mediated calcium flux functional assay (human); type: cell-based
Sequence of human 5-HT2A receptors (P28223 whole entry, canonical isoform): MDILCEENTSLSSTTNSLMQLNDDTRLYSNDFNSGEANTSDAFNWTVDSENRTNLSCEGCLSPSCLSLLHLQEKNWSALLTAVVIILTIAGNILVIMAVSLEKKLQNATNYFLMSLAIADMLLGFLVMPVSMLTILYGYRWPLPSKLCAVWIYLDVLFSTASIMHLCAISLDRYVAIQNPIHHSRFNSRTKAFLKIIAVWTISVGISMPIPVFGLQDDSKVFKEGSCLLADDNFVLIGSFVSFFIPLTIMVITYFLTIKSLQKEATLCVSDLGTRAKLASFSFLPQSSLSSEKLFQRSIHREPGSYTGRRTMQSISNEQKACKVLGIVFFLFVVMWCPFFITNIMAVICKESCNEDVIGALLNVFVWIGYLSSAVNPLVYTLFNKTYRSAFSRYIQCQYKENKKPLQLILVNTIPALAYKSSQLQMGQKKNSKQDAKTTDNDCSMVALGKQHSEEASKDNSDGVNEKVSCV
Description: (§1) Serotonin and Opioid Receptor Functional Assays. Functional assay screens at 5-HT and opioid receptors were performed in parallel using the same compound dilutions and 384-well format high-throughput assay platforms. Assays assessed activity at all human isoforms of the receptors, except where noted for the mouse 5-HT2A receptor. Receptor constructs in pcDNA vectors were generated from the Presto-Tango GPCR library with minor modifications. All compounds were serially diluted in drug buffer (HBSS, 20 mM HEPES, pH 7.4 supplemented with 0.1% bovine serum albumin and 0.01% ascorbic acid) and dispensed into 384-well assay plates using a FLIPR^TETRA (Molecular Devices). Every plate included a positive control such as 5-HT (for all 5-HT receptors), DADLE (DOR), salvinorin A (KOR), and DAMGO (MOR). For measurements of 5-HT2A, 5-HT2B, and 5-HT2C Gq-mediated calcium flux function, HEK Flp-In 293 T-Rex stable cell lines (Invitrogen) were loaded with Fluo-4 dye for one hour, stimulated with compounds and read for baseline (0-10 seconds) and peak fold-over-basal fluorescence (5 minutes) at 25° C. on the FLIPR^TETRA. For measurement of 5-HT6 and 5-HT7a functional assays, Gs-mediated cAMP accumulation was detected using the split-luciferase GloSensor assay in HEKT cells measuring luminescence on a Microbeta Trilux (Perkin Elmer) with a 15 min drug incubation at 25° C. […]

[7] = target: mouse 5-HT2A receptors (Mus musculus, UniProt P35363); assay: 5-HT2A Gq-mediated calcium flux functional assay (mouse); type: cell-based
Sequence of mouse 5-HT2A receptors (P35363 whole entry): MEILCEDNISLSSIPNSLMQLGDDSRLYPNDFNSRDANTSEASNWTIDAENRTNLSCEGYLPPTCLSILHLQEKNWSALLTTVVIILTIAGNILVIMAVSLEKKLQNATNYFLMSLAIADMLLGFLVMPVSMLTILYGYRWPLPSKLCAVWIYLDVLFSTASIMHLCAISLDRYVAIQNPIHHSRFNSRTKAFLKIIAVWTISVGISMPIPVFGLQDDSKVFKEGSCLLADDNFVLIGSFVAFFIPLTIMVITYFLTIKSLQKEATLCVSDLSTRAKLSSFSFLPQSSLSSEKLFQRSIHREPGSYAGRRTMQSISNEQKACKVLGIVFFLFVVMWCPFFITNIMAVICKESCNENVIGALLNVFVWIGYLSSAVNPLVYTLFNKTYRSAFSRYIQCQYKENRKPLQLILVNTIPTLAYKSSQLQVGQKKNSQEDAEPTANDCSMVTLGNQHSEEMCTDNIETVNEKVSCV
Description: as §1

[8] = target: 5-HT2B receptors (Homo sapiens, UniProt P41595); assay: 5-HT2B Gq-mediated calcium flux functional assay; type: cell-based
Sequence of 5-HT2B receptors (P41595 whole entry, canonical isoform): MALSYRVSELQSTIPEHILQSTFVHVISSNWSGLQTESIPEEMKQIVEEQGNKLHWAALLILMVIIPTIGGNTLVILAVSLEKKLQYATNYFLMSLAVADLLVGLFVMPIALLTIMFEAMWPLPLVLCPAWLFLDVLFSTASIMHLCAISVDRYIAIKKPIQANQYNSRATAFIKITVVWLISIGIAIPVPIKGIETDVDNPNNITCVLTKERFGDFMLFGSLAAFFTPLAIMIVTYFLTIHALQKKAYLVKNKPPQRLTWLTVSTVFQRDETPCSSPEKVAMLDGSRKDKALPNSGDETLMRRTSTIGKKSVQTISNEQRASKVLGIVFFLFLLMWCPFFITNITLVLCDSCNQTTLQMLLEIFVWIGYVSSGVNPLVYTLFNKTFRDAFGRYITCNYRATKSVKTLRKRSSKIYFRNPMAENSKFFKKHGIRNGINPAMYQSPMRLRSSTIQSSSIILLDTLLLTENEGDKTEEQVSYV
Description: Serotonin and Opioid Receptor Functional Assays. Functional assay screens at 5-HT and opioid receptors were performed in parallel using the same compound dilutions and 384-well format high-throughput assay platforms. Assays assessed activity at all human isoforms of the receptors, except where noted for the mouse 5-HT2A receptor. Receptor constructs in pcDNA vectors were generated from the Presto-Tango GPCR library with minor modifications. All compounds were serially diluted in drug buffer (HBSS, 20 mM HEPES, pH 7.4 supplemented with 0.1% bovine serum albumin and 0.01% ascorbic acid) and dispensed into 384-well assay plates using a FLIPR^TETRA (Molecular Devices). Every plate included a positive control such as 5-HT (for all 5-HT receptors), DADLE (DOR), salvinorin A (KOR), and DAMGO (MOR). For measurements of 5-HT2A, 5-HT2B, and 5-HT2C Gq-mediated calcium flux function, HEK Flp-In 293 T-Rex stable cell lines (Invitrogen) were loaded with Fluo-4 dye for one hour, stimulated with compounds and read for baseline (0-10 seconds) and peak fold-over-basal fluorescence (5 minutes) at 25° C. on the FLIPR^TETRA. For measurement of 5-HT6 and 5-HT7a functional assays, Gs-mediated cAMP accumulation was detected using the split-luciferase GloSensor assay in HEKT cells measuring luminescence on a Microbeta Trilux (Perkin Elmer) with a 15 min drug incubation at 25° C. For 5-HT1A, 5-HT1B, 5-HT1F, MOR, KOR, and DOR functional assays, Gi/o-mediated cAMP inhibition was measured using the split-luciferase GloSensor assay in HEKT cells, conducted similarly as above, but in combination with either 0.3 μM isoproterenol (5-HT1A, 5-HT1B, 5-HT1F) or 1 μM forskolin (MOR, KOR, and DOR) to stimulate endogenous cAMP accumulation. For measurement of 5-HT1D, 5-HT1E, 5-HT4, and 5-HT5A functional assays, β-arrestin2 recruitment was measured by the Tango assay utilizing HTLA cells expressing TEV fused-β-arrestin2, as described previously with minor modifications. […]

[9] = tested on: opioid receptors (MOR, KOR, DOR); assay: Opioid receptor functional assays (Gi/o-mediated cAMP inhibition); type: cell-based, human
Description: as §1

[10] = target: T2, 5-HT1A (Homo sapiens, UniProt P08908); assay: 5-HT1A functional assay (Gi/o-mediated cAMP inhibition); type: cell-based
T2 construct: expressed in transfected cells; host or cells: HEKT cells (GloSensor cAMP assay)
T2 sequence (P08908 1-422): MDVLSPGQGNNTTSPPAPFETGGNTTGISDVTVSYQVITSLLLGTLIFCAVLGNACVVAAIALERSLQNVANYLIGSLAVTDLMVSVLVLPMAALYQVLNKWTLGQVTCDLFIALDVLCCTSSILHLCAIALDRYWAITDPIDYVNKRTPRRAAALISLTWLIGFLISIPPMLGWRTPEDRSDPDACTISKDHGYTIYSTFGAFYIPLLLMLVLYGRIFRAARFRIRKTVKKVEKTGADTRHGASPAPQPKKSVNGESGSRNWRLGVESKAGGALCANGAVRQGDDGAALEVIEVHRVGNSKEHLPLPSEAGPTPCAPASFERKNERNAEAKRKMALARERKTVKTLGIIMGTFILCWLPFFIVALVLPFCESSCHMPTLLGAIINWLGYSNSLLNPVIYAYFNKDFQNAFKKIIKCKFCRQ
Description: as §1

[11] = target: T3, 5-HT2C (Homo sapiens, UniProt P28335); assay: 5-HT2C Gq-mediated calcium flux functional assay; type: cell-based
T3 sequence (P28335 33-458): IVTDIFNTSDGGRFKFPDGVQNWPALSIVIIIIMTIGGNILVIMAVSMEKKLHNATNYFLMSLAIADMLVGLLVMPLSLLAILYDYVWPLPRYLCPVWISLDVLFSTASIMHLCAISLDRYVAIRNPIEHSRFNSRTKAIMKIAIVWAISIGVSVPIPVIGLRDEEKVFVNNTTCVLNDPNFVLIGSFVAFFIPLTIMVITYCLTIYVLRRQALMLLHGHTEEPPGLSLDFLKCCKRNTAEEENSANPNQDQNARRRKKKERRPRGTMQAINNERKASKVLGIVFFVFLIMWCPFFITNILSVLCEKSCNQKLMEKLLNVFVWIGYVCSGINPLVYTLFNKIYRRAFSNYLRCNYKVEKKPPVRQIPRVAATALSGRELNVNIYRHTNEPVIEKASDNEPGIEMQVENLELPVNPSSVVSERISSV
Description: as §1

[12] = Solubility in 0.9% saline; settings: saline or isotonic
[13] = tested on: C57BL/6J mice; assay: Head-twitch response (HTR) assay; settings: intraperitoneal; fumarate salts; 5-MeO-DMT 10 mg/kg as positive control
[14] = tested on: larval zebrafish; assay: Heart rate and arrhythmia in immobilized larval zebrafish

With `CNC1(c2ccccc2Cl)CCCCC1=O` (centres unmarked) [ketamine, reference compound] the “immobility in FST” value [1] was “significantly reduced immobility”.
With `COc1ccc2[nH]c3c(c2c1)CCN(C)CC3` [IBG] the “psychoplastogenic effect on dendritic growth (Sholl analysis)” value [2] was “performed comparably to ibogaine”, the “fold less potent than ibogaine at hERG” value [3] was “approximately 10 fold” and the “behavioral phenotype at highest concentration versus lethal control” value ([4]; 200 μM) was “did not produce this phenotype”. For the same compound, the “behavioral phenotype with increasing concentration versus vehicle and lethal control (eugenol, 100 μM)” value ([4]; 1 h treatment, concentration-response) was “do not produce movement responses in larval zebrafish similar to a lethal concentration of eugenol”, the “machine learning classification of movement responses” value ([4]; highest concentrations (200 μM)) was “more similar to vehicle controls than to ibogaine, noribogaine, or lethal controls” and the “malformations, mortality, non-viable fish” value [5] was “significantly fewer non-viable fish than ibogaine or noribogaine treatments”. For the same compound, the “agonist activity at human 5-HT2A receptors” value [6] was “potent agonist activity”, the “agonist activity at mouse 5-HT2A receptors” value [7] was “potent agonist activity” and the “activity mode at 5-HT2B receptors” value [8] was “antagonists”. The opioid agonist activity [9] was “weak or no opioid agonist activity”, the “5-HT1A agonist activity compared to 5-MeO-DMT” value [10] was “weaker 5-HT1A and 5-HT2C agonist activity” and the “5-HT2C agonist activity compared to 5-MeO-DMT” value [11] was “weaker 5-HT1A and 5-HT2C agonist activity”. The solubility [12] was ≥ 40 mg/mL, the “hallucinogenic potential (head-twitch response)” value [13] was “significantly reduced hallucinogenic potential” and the “heart rate (bradycardia)” value [14] was “Neither IBG nor TBG induced these undesirable phenotypes; also recorded: do not induce bradycardia”. For the same compound, the “likelihood of arrhythmias (ratio of atrium to ventricle BPM)” value [14] was “Neither IBG nor TBG induced these undesirable phenotypes”.
